The nature of series [1]: Plasma concentration in ICR mouse at 5 mg/kg, iv measured after 0.5 hrs by LC-MS/MS analysis. Type of series: ADME, organism-based.
Series [2] is described as follows: Ratio of drug level in brain to plasma of ICR mouse at 5 mg/kg, iv measured after 0.5 hrs by LC-MS/MS analysis. Type of series: ADME, organism-based. As to conditions: read-out: BPR.
Series [3] addresses 5-hydroxytryptamine receptor 2A (Homo sapiens, UniProt P28223). The experiment in a line: Antagonist activity at 5HT2A receptor (unknown origin) expressed in HEK293 cells assessed as inhibition of serotonin hydrochloride-induced calcium flux preincubated for 1 hr followed by serotonin hydrochloride addition by calcium 6 dye based FLIPR assay. The class given is functional, cell-based.

A short description of series [4]: Permeability of the compound by PAMPA. As to conditions: read-out: permeability. The class given is ADME.
Series [5] can be described thus: Drug level in ICR mouse brain at 5 mg/kg, iv measured after 0.5 hrs by LC-MS/MS analysis. The class given is ADME, organism-based. Conditions: read-out: Drug uptake.

5-hydroxytryptamine receptor 2A, sequence (P28223 whole entry): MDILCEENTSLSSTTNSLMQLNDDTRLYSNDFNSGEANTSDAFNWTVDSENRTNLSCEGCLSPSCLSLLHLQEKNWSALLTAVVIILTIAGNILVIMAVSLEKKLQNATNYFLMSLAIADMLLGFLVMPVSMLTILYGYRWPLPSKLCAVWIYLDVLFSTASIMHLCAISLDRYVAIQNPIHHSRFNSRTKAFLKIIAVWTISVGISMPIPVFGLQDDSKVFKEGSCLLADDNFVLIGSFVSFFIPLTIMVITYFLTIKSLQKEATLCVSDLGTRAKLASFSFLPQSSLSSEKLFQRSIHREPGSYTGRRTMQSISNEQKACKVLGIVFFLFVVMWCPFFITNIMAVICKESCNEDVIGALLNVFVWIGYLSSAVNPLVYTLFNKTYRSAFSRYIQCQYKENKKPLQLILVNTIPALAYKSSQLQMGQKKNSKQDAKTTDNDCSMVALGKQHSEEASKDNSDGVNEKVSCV

As to `CN1CCC(N(Cc2ccc(F)cc2)C(=O)NCc2ccc(OCC(O)CN3CCC(c4noc5cc(F)ccc45)CC3)cc2)CC1` (centres undefined), the concentration at 0.5 h in series [1] turned out to be 455 ng/mL; in series [5], 741 ng/g. Also, in series [2], the Kp at 0.5 h amounted to 1.63. Also, the IC50 in series [3] is 0.39 nM. Moreover, the Papp in series [4] is 4.79 ×10⁻⁶ cm/s.
For the compound `CN1CCC(N(Cc2ccc(F)cc2)C(=O)NCc2ccc(OCC(O)CN3CCN(c4nsc5ccccc45)CC3)cc2)CC1` (centres undefined), the 50% inhibitory concentration (IC50) in series [3] turned out to be 0.87 nM.
Same read-out and setting: then `CN1CCC(N(Cc2ccc(F)cc2)C(=O)NCc2ccc(OCC(O)CN3CCN(C(=O)OC(C)(C)C)CC3)cc2)CC1` (centres undefined), with 1.94 nM; and `CC(C)COc1ccc(CNC(=O)N(Cc2ccc(F)cc2)C2CCN(S(C)(=O)=O)CC2)cc1`, with 2020 nM.
The same measure, in the same setting: the same measure for `CC(C)COc1ccc(CNC(=O)N(Cc2ccc(F)cc2)C2CCN(C(=O)CCC(=O)O)CC2)cc1`: 317 nM.

Source of the values: ChEMBL document CHEMBL4613264, “Design, Synthesis, and Biological Evaluation of New Peripheral 5HT2A Antagonists for Nonalcoholic Fatty Liver Disease” (J Med Chem, 2020).
